How the values were obtained:
[1] = test system: tetrabenazine-induced ptosis; experiment: inhibition of tetrabenazine-induced depression (ptosis) in mice; assay type: in vivo
[2] = test system: phenyl-p-quinone writhing; experiment: phenyl-p-quinone writhing assay in mice; assay type: in vivo; settings: Mus musculus, sc
Description: The (aminoalkylthio)hydroxydibenzoxepins of the present invention are also useful as analgetic agents due to their ability to alleviate pain in mammals. […] Exptl.

SMILES: CN(C)CCC=C1c2ccccc2CCc2ccccc21 [Amitriptyline, reference compound]
- EDso (tetrabenazine-induced ptosis) ([1]; intraperitoneally, standard antidepressant, unit not given): 1.5

SMILES: CNCCSC1=Cc2cc(O)ccc2Oc2ccc(F)cc21 [Example 2, 2-Fluoro-8-hydroxy-11-[β-(methylamino)ethylthio)-dibenz-[b,f]oxepin]
- ED50 ([1]; Mus musculus, ip, intraperitoneal, read-out: intraperitoneal dose effecting a 50% inhibition of tetrabenazine-induced ptosis (ED50)): 3.3 mg/kg
- inhibition at 20 mg/kg ([2]; mice, subcutaneous dose 20 mg/kg of body weight): 69%

SMILES: CNCCSC1=Cc2ccc(O)cc2Oc2ccc(F)cc21 [Example 3, 2-Fluoro-7-hydroxy-11-[β-(methylamino)ethylthio]-dibenz-[b,f]oxepin]
- inhibition at 20 mg/kg ([1]; Mus musculus, ip, intraperitoneal dose 20 mg/kg of body weight): 89%
- inhibition at 10 mg/kg ([2]; mice, subcutaneous dose 10 mg/kg of body weight): 42%

SMILES: CCC(=O)O[C@](Cc1ccccc1)(c1ccccc1)[C@H](C)CN(C)C [Propoxyphene, reference compound]
- ED50 ([2]; read-out: dose giving calculated 50% inhibition of writhing): 3.9 mg/kg

From patent EP0200132A2, “(Aminoalkylthio)hydroxydibenzoxepins, a process for their preparation and their use as medicaments” (HOECHST-ROUSSEL PHARMACEUTICALS INCORPORATED, priority 1985, dated 1986)
